Measurements as given in paper PMC13371181, “A paracrine-to-autocrine shunt of GREM1 fuels colorectal cancer metastasis via ACVR1C” (Molecular Cancer, 2026).
“Also recorded” adds a separate entry of the source.

What was measured:
[1] = test system: ACVR1C–SMAD2/3 pathway in HCT116 and SW480 cells; test: Immunoblotting p-SMAD2/3 (ACVR1C pathway); type: cell-based, human; settings: HCT116 and SW480 cells, immunoblotting; GREM1-CM + GREM1 BAb or + SB505124 (1 µM)
Procedure: (§1) To investigate the effect of secreted GREM1 on CRC cells, an in vitro GREM1 secretion system was established using HEK293 cells. Stably GREM1-expressing cells (pcDNA3.1-GREM1) and empty-vector transfected cells (pcDNA3.1) were cultured in DMEM/F12 medium with 10% FBS until 40% confluence. After complete removal of the normal culture medium, HEK293-GREM1 and HEK293-Vec cells were continuously cultured in DMEM/F12 medium without FBS for 5 days before medium collection. GREM1 or Vector conditioned medium (GREM1-CM/Vec-CM) was then centrifuged at 1000 rpm for 30 min and the supernatant was collected for further study.
Protein was extracted from the cells with RIPA buffer (Beyotime, P0018) or NP40 lysis buffer (Beyotime, P0013F) and separated by SDS-PAGE, and transferred to polyvinylidene difluoride membranes. […] Band intensity was quantified using Fiji (ImageJ) by grayscale analysis.

[2] = test system: HCT116 cells; test: Scratch assay, HCT116; type: cell-based, human; settings: HCT116, scratch assay 24 h; n = 3 independent experiments
Procedure: as §1
Cells were seeded into 6-well plates after centrifugation and digestion with 0.05% trypsin. When the cell density reached 90%, three vertical lines were scratched in each well with a 10 µL pipette tip and the floating cells were gently washed away with 1×PBS. Complete medium was added, and images of the scratch area were taken at 0 h. Three different fields of view were selected for each well. After photography, the medium was replaced with serum-free medium. Wound healing was documented at the same location after 24–48 h of incubation.

[3] = test system: SNAI1 promoter; test: ChIP–qPCR, SMAD2/3/4 binding to SNAI1 promoter; type: cell-based, human; settings: SW480 cells, SB505124 10 µM, 24 h, n = 3 independent experiments
Procedure: SW480 cells were starved in DMEM with 1% FCS overnight before treatment with vehicle, 10 µM SB505124 for 24 h. Cells were fixed in 1% paraformaldehyde for 10 min at RT for DNA-protein cross-linking, followed by quenching with glycine. Cross-linking chromatin was prepared using the SimpleChIP® Enzymatic Chromatin IP Kit (CST, 9002) according to the manufacturer’s instructions. For immunoprecipitation, 10 µg chromatin was incubated with 10 µL anti-histone H3 rabbit IgG (CST, 14269, positive control), 2 µL normal Rabbit IgG (CST, 2729) or 5 µL anti-SMAD2/3 rabbit IgG (CST, 8685) at 4 °C overnight. 2% chromatin prior to immunoprecipitation was used as input. Chromatin-protein-antibody complex was captured by protein G magnetic beads, and chromatin was released by reversal of cross-links and purified using the SimpleChIP® Enzymatic Chromatin IP Kit (CST, 9002) according to the manufacturer’s instructions. DNA was quantified by qPCR with primers targeting predicted SMAD2/3/4 binding regions on GREM1 or SNAI1 promoters. DNA levels were normalized to the input, and the fold-change of enrichment was calculated over the control. ChIP–qPCR primers are listed in Supplementary Table 2.

[4] = test system: SW480 cells; test: GREM1 expression in SW480 cells after rhGREM1, RT–qPCR; type: cell-based, human; settings: n = 3 biological replicates
Procedure: Total RNA was extracted using Trizol reagent (Invitrogen, 15596026). According to the instructions, cDNA was generated using the PrimeScript RT reagent Kit with gDNA Eraser (Accurate Biology, AG11706). The SYBR Green Premix Pro Taq HS qPCR Kit (Accurate Biology, AG11701) was then used to quantify mRNA expression according to the manufacturer’s instructions. All results were calculated using the 2^−ΔΔCt method. Primers used in the study are listed in Supplementary Table 1.

[5] = test system: type I TGFβ/Activin receptors; settings: SB505124; cited from earlier work
Procedure: Fig. 3 Secretory GREM1 binding of ACVR1C induces EMT via SMAD2/3 pathway. A, RNA sequencing was performed on HCT116 cells treated with GREM1 conditioned medium (GREM1-CM) or vector control conditioned medium (Vec-CM), followed by GSEA of the C2 gene sets. NES, normalized enrichment score; all P values equal to 0. B, Activation levels of the ACVR1C pathway markers (p-SMAD2/3 and SMAD2/3), as well as expression of the epithelial marker (E-CAD) and the mesenchymal markers (SNAIL, ZEB1, and β-CAT) were compared by immunoblotting analysis in SW480 and HCT116 cells treated with Vec-CM, GREM1-CM, GRE ...

Cc1cccc(-c2[nH]c(C(C)(C)C)nc2-c2ccc3c(c2)OCO3)n1 [SB505124]
GREM1-CM-induced p-SMAD2/3, effect of inhibitor [1]: significantly blocked GREM1-CM–induced p-SMAD2/3 activation and EMT
GREM1-CM-induced migration, effect of inhibitor [2]: abolished; also recorded: suppressed
SMAD2/3/4 binding to SNAI1 promoter −787 site [3]: significantly decreased this binding
rhGREM1-induced GREM1 expression, effect of inhibitor [4]: completely reversed the effect of rhGREM1
selectivity of SMAD2/3 phosphorylation block [5]: selectively blocks the type I TGFβ/Activin receptors-mediated SMAD2/3 phosphorylation
